In patent US20240166652A1, “MODULATORS OF THE INTEGRATED STRESS PATHWAY” (Calico Life Sciences LLC, priority 2017, published 2024):

system: ATF4 luciferase reporter in HEK293T cells; assay: ATF4-Luc assay (ATF4 luciferase reporter, tunicamycin-treated HEK293T cells); assay type: cell-based, human; details: Homo sapiens, HEK-293T; HEK293T cells carrying the ATF4 luciferase reporter, 1 μg/mL tunicamycin, 7 hours

| SMILES | EC50 [nM] |
| --- | --- |
| N#CCc1cc(OCC(=O)NC23CC(NC(=O)COc4ccc(Cl)c(F)c4)(C2)C3)ccc1Cl [Compound 262, 2-[4-chloro-3-(cyanomethyl)phenoxy]-N-{3-[2-(4-chloro-3-fluorophenoxy)acetamido]bicyclo[1.1.1]pentan-1-yl}acetamide] | 10 to 50 |
| O=C(COc1ccc(Cl)c(F)c1)NC12CCC(NC(=O)COc3ccc(Cl)c(F)c3)(CC1)C(=O)N2 [Compound 603, N,N′-(3-oxo-2-azabicyclo[2.2.2]octane-1,4-diyl)bis[2-(4-chloro-3-fluorophenoxy)acetamide]] | < 10 |
| O=C(COc1ccc(F)c(F)c1)NC12CC(NC(=O)COc3ccc(Cl)c(Cl)c3)(C1)C2 [Compound 584, 2-(3,4-dichlorophenoxy)-N-{3-[2-(3,4-difluorophenoxy)acetamido]bicyclo[1.1.1]pentan-1-yl}acetamide] | < 10 |
| Cc1cc(OCC(=O)NC23CC(NC(=O)COc4ccc(Cl)cc4)(C2)C3)ccc1Cl [Compound 116, 2-(4-chloro-3-methylphenoxy)-N-{3-[2-(4-chlorophenoxy)acetamido]bicyclo-[1.1.1]pentan-1-yl}acetamide] | < 10 |
| O=C(COc1ccc(Cl)c(F)c1)NC12CCC(NC(=O)COc3ccc(Cl)cc3)(CC1)[C@@H](O)C2 [Compound 454, 2-(4-chloro-3-fluorophenoxy)-N-{(3S)-4-[2-(4-chlorophenoxy)acetamido]-3-hydroxybicyclo[2.2.2]octan-1-yl}acetamide] | < 10 |
| CS(=O)(=O)c1ccc(OCC(=O)NC23CCC(NC(=O)COc4ccc(Cl)c(F)c4)(CC2)C[C@@H]3O)cc1 [Compound 504, 2-(4-chloro-3-fluorophenoxy)-N-[(3S)-3-hydroxy-4-{2-[4-(methanesulfonyl)phenoxy]acetamido}bicyclo[2.2.2]octan-1-yl] acetamide] | 50 to 250 |
| O=C(COc1ccc(Cl)c(F)c1)NC12CCC(NC(=O)COc3cccc(Cl)c3)(CC1)[C@@H](O)C2 [Compound 660, 2-(4-chloro-3-fluorophenoxy)-N-{(3S)-4-[2-(3-chlorophenoxy)acetamido]-3-hydroxybicyclo[2.2.2]octan-1-yl}acetamide] | < 10 |
| O=C(COc1ccc(Cl)c(F)c1)NC12CCC(NC(=O)COc3ccc4ccccc4c3)(CC1)[C@@H](O)C2 [Compound 517, 2-(4-chloro-3-fluorophenoxy)-N-[(3S)-3-hydroxy-4-{2-[(naphthalen-2-yl)oxy]acetamido}bicyclo[2.2.2]octan-1-yl]acetamide] | < 10 |
| O=C(COc1ccc2c(c1)OC(F)(F)O2)NC12CC(NC(=O)COc3cnc(C(F)F)cn3)(C1)C2 [Compound 383, 2-[(2,2-difluoro-2H-1,3-benzodioxol-5-yl)oxy]-N-[3-(2-{[5-(difluoromethyl)pyrazin-2-yl]oxy}acetamido)bicyclo[1.1.1]pentan-1-yl]acetamide] | > 2000 |
| O=C(COc1ccc(Cl)c(F)c1)NC12CC(NC(=O)OCCCc3cccc(Cl)c3)(C1)C2 [Compound 166, 3-(3-chlorophenyl)propyl {3-[2-(4-chloro-3-fluorophenoxy)acetamido]-bicyclo[1.1.1]pentan-1-yl}carbamate] | 250 to 500 |
| O=C(COc1ccc(F)c(Cl)c1)NC12CCC(NC(=O)COc3ccc(Cl)c(F)c3)(CC1)[C@@H](O)C2 [Compound 545, 2-(4-chloro-3-fluorophenoxy)-N-{(2S)-4-[2-(3-chloro-4-fluorophenoxy)acetamido]-2-hydroxybicyclo[2.2.2]octan-1-yl}acetamide] | < 10 |
| O=C(COc1ccc(Cl)c(F)c1)N[C@@H]1[C@@H]2CC[C@@](NC(=O)COc3ccc(Cl)c(F)c3)(C2)C[C@H]1O (racemic) [Compound 625, rac-N,N′-[(1R,3R,4R,5R)-3-hydroxybicyclo[3.2.1]octane-1,4-diyl]bis[2-(4-chloro-3-fluorophenoxy)acetamide]] | < 10 |
| O=C(COc1ccc(Cl)cc1)NC12C3C4C1C1C2C3C41NC(=O)COc1ccc(Cl)cc1 (stereo not drawn) [Compound 103, N,N′-(pentacyclo[4.2.0.0^2,50^3,80^4,7]octane-1,4-diyl)bis[2-(4-chlorophenoxy)-acetamide]] | 10 to 50 |
| O=C(COc1ccc(Cl)c(Cl)c1)NC12CC(NCC(=O)c3ccc(Cl)cc3)(C1)C2 [Compound 287, N-(3-{[2-(4-chlorophenyl)-2-oxoethyl]amino}bicyclo[1.1.1]pentan-1-yl)-2-(3,4-dichlorophenoxy)acetamide] | 50 to 250 |
| O=C(COc1ccc(Cl)c(F)c1)N[C@@H]1C[C@H]2CC[C@@H](C1)[C@H]2NC(=O)COc1ccc(Cl)c(F)c1 [Compound 595, N,N′-[(1R,3s,5S,8r)-bicyclo[3.2.1]octane-3,8-diyl]bis[2-(4-chloro-3-fluorophenoxy)acetamide]] | > 2000 |
| O=C(COc1cccc(Cl)c1)NC12CC(NC(=O)COc3ccc(Cl)c(F)c3)(C1)C2 [Compound 146, 2-(4-chloro-3-fluorophenoxy)-N-{3-{2-(3-chlorophenoxy)acetamido}-bicyclo[1.1.1]pentan-1-yl}acetamide] | < 10 |
| O=C(COc1ccc(Cl)c(F)c1)NC12CCC(NC(=O)COc3ccc(Cl)c(F)c3)(CC1)C(CO)C2 (stereo not drawn) [Compound 568, N,N′-[2-(hydroxymethyl)bicyclo[2.2.2]octane-1,4-diyl]bis[2-(4-chloro-3-fluorophenoxy)acetamide]] | < 10 |

| SMILES | EC50 [nM] |
| --- | --- |
| O=C(COc1ccc(Cl)c(F)c1)NC12CCC(NC(=O)COc3ccnc(C(F)(F)F)c3)(CC1)[C@@H](O)C2 (single isomer, unassigned) [Compound 319] | < 10 |
| O=C(COc1ccc(Cl)cc1)NC12CC(NC(=O)COc3cccc(Cl)c3)(C1)C2 [Compound 118, 2-(4-chlorophenoxy)-N-{3-[2-(3-chlorophenoxy)acetamido]bicyclo-[1.1.1]pentan-1-yl}acetamide] | 10 to 50 |
| O=C(CCOc1cccc(Cl)c1)NC12CC(NC(=O)COc3ccc(Cl)c(Cl)c3)(C1)C2 [Compound 169, 3-(3-chlorophenoxy)-N-{3-[2-(3,4-dichlorophenoxy)acetamido]bicyclo-[1.1.1]pentan-1-yl}propanamide] | 250 to 500 |
| O=C(COc1ccc(OC(F)(F)F)c(F)c1)NC12CCC(NC(=O)COc3ccc(Cl)c(F)c3)(CC1)[C@@H](O)C2 [Compound 761, 2-(4-chloro-3-fluorophenoxy)-N-[(2S)-4-{2-[3-fluoro-4-(trifluoromethoxy)phenoxy]acetamido}-2-hydroxybicyclo[2.2.2]octan-1-yl]acetamide] | < 10 |
| O=C(COc1ccc(Cl)c(F)c1)NC12CCC(NC(=O)COc3ccc(Cl)c(F)c3)(CC1)N(CCO)C2=O [Compound 679, N,N′-[2-(2-hydroxyethyl)-3-oxo-2-azabicyclo[2.2.2]octane-1,4-diyl]bis[2-(4-chloro-3-fluorophenoxy)acetamide]] | 50 to 250 |
| Cn1nc(C(F)(F)F)cc1OCC(=O)NC12CC(NC(=O)COc3ccc(Cl)c(F)c3)(C1)C2 [Compound 369, 2-(4-chloro-3-fluorophenoxy)-N-[3-(2-{[1-methyl-3-(trifluoromethyl)-1H-pyrazol-5-yl]oxy}acetamido)bicyclo[1.1.1]pentan-1-yl]acetamide] | > 2000 |
| Cc1cc(OCC(=O)NC23CCC(NC(=O)COc4ccc(Cl)c(C)c4)(CC2)[C@@H](O)C3)ccc1Cl [Compound 525, N,N′-[(2S)-2-hydroxybicyclo[2.2.2]octane-1,4-diyl]bis[2-(4-chloro-3-methylphenoxy)acetamide]] | < 10 |
| O=C(CCc1ccc(Cl)cc1)NC12CC(NC(=O)COc3ccc(Cl)c(F)c3)(C1)C2 [Compound 102, N-{3-[2-(4-chloro-3-fluorophenoxy)acetamido]bicyclo[1.1.1]pentan-1-yl}-3-(4-chlorophenyl)propanamide] | 50 to 250 |
| CC(=O)c1ccc(OCC(=O)NC23CC(NC(=O)COc4ccc(Cl)c(F)c4)(C2)C3)cn1 [Compound 235, 2-[(6-acetylpyridin-3-yl)oxy]-N-{3-[2-(4-chloro-3-fluorophenoxy)acetamido]0-bicyclo[1.1.1]pentan-1-yl}acetamide] | 50 to 250 |
| O=C(COc1ccc(S(F)(F)(F)(F)F)cc1)NC12CC(NC(=O)COc3ccc4c(c3)OC(F)(F)O4)(C1)C2 [Compound 278, 2-[(2,2-difluoro-2H-1,3-benzodioxol-5-yl)oxy]-N-(3-{2-[4-(pentafluoro-λ^6-sulfanyl)phenoxy]acetamido}bicyclo[1.1.1]pentan-1-yl)acetamide] | 10 to 50 |
| O=C(COc1ccc(Cl)c(F)c1)NC12CC(NS(=O)(=O)Cc3ccc(C(F)(F)F)cc3)(C1)C2 [Compound 426, 2-(4-chloro-3-fluorophenoxy)-N-[3-({[4-(trifluoromethyl)phenyl]methanesulfonyl}amino)bicyclo[1.1.1]pentan-1-yl]acetamide] | 50 to 250 |
| O=C(COc1ccc(OC(F)(F)F)cc1)NC12CCC(NC(=O)COc3ccc(OC(F)(F)F)cc3)(CC1)[C@@H](O)C2 [Compound 785, N,N′-[(2S)-2-hydroxybicyclo[2.2.2]octane-1,4-diyl]bis{2-[4-(trifluoromethoxy)phenoxy]acetamide}] | 50 to 250 |
| O=C(COc1ccc2cn[nH]c2c1)NC12CC(NC(=O)COc3ccc4cn[nH]c4c3)(C1)C2 [Compound 109, N,N′-(bicyclo[1.1.1]pentane-1,3-diyl)bis{2-[(1H-indazol-6-yl)oxy]acetamide}] | 500 to 2000 |
| Cc1cc(OC(C)(C)C(=O)NC23CCC(NC(=O)COc4ccc(Cl)c(F)c4)(CC2)C[C@@H]3O)ccc1Cl [Compound 439, N-{(2S)-4-[2-(4-chloro-3-fluorophenoxy)acetamido]-2-hydroxybicyclo[2.2.2]octan-1-yl}-2-(4-chloro-3-methylphenoxy)-2-methylpropanamide] | < 10 |
| O=C(COc1ccc(Cl)c(F)c1)NC12CCC(NC(=O)COc3ccc(Cl)c(F)c3)(CC1)C(NC1COC1)C2 (stereo not drawn) [Compound 722, N,N′-{2-[(oxetan-3-yl)amino]bicyclo[2.2.2]octane-1,4-diyl}bis[2-(4-chloro-3-fluorophenoxy)acetamide]] | < 10 |
| O=C(COc1ccc2c(c1)OC(F)(F)O2)NC12CCC(NC(=O)COc3ccc(Cl)c(F)c3)(CC1)[C@@H](O)C2 [Compound 726, 2-(4-chloro-3-fluorophenoxy)-N-[(2S)-4-{2-[(2,2-difluoro-2H-1,3-benzodioxol-5-yl)oxy]acetamido}-2-hydroxybicyclo[2.2.2]octan-1-yl]acetamide] | < 10 |
